Data from ChEMBL document CHEMBL4610061, “Identification of novel GPR81 agonist lead series for target biology evaluation” (Bioorg Med Chem Lett, 2020).
Converted amounts (≈) assume the structure as drawn. The source made the active and inactive calls. The calls are words filed in the database; no cut-off is given here.

Experiments:
[1] = Solubility of compound; assay type: physicochemical
[2] = target: T1, Hydroxycarboxylic acid receptor 1 (Homo sapiens, UniProt Q9BXC0); test: Agonist activity at human GPR81 overexpressed in CHO cells assessed as inhibition of forskolin-stimulated cAMP production; assay type: functional, cell-based
[3] = Distribution coefficient, logD of compound at pH 7.4; assay type: physicochemical; settings: octanol/water
[4] = target: Growth hormone secretagogue receptor type 1 (Homo sapiens, UniProt Q92847); test: Displacement of [125I]-ghrelin from human GHS-R1a stably expressed in HEK cell membrane measured after 60 mins by gamma counter method; assay type: cell membranes
[5] = target: Hydroxycarboxylic acid receptor 2 (Homo sapiens, UniProt Q8TDS4); test: Agonist activity at human GPR109A receptor
Homo sapiens = organism: Homo sapiens; test: Selectivity index, ratio of IC50 for displacement of [125I]-ghrelin from human GHS-R1a stably expressed in HEK cell membrane measured after 60 mins by gamma counter method to EC50 for agonist activity at human GPR81 overexpressed in CHO cells assessed as inhibition of forskolin-stimulated cAMP production; assay type: cell membranes
[6] = target: T1, Hydroxycarboxylic acid receptor 1; test: Agonist activity at human GPR81 overexpressed in CHO cells assessed as inhibition of forskolin-stimulated cAMP production at 10 uM relative to control; assay type: functional, cell-based
[7] = target: T2, Protein Gpr81 (Rattus norvegicus) (UniProt G3V906); test: Agonist activity at rat GPR81 overexpressed in HEK293 cells by [35S]GTPgammaS binding assay; assay type: cell-based
T2 sequence (whole entry): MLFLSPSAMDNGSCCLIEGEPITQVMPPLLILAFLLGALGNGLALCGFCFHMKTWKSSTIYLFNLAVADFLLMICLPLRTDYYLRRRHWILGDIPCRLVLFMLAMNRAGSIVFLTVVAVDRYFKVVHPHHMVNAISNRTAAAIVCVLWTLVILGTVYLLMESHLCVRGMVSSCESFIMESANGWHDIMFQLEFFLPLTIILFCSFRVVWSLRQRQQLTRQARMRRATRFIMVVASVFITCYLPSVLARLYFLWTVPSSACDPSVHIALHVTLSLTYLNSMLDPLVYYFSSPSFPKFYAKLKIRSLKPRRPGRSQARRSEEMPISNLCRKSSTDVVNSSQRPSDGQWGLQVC

Chain of Growth hormone secretagogue receptor type 1 (Q92847 whole entry): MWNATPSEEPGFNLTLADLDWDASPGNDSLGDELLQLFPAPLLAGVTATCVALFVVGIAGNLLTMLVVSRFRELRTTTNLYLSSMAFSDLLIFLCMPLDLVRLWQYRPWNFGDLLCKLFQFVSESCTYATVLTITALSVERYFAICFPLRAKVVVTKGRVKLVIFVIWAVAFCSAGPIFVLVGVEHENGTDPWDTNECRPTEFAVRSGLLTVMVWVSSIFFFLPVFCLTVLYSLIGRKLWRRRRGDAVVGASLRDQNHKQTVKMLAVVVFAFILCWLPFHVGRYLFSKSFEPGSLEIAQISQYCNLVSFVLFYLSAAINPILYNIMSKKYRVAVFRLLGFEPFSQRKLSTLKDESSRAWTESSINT
T1 sequence (Q9BXC0 whole entry): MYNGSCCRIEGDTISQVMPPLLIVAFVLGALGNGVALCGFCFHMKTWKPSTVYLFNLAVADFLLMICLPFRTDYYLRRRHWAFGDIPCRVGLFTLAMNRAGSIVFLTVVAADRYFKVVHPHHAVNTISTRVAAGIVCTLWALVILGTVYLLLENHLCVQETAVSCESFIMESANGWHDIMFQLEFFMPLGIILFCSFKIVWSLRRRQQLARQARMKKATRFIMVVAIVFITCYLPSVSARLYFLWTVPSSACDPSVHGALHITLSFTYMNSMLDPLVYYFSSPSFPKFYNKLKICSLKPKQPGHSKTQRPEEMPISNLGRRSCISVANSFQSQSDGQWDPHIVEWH
Chain of Hydroxycarboxylic acid receptor 2 (Q8TDS4 whole entry): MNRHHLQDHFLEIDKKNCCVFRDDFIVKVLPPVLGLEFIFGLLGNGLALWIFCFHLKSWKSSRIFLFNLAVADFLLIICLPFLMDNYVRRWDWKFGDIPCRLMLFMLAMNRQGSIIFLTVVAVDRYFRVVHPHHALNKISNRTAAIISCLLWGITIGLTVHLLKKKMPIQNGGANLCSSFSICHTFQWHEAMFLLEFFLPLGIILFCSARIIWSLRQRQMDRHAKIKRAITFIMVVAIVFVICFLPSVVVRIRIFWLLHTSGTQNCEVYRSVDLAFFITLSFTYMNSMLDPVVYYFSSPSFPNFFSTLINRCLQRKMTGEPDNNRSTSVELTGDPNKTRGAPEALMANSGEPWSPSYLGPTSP

| Structure (SMILES) | solubility [1] | EC50 [2] | logD [3] | IC50 [4] | EC50 [5] | Ratio IC50/EC50 (Homo sapiens) | Efficacy [6] | Activity [7] |
| --- | --- | --- | --- | --- | --- | --- | --- | --- |
| CCOc1cc(Cl)c(-c2ccc(-c3nc4c(s3)CN(C(=O)CO)CC4)c(=O)[nH]2)cc1N1CCOCC1 | 7 µM (≈ 3.72 µg/mL) | 22 nM | 2.4 | 1900 nM | 910 nM | – | – | – |
| CCOc1cc(Cl)c(C(=O)Nc2nc3ccc(S(=O)(=O)CCCN4CCN(C)CC4)cc3s2)cc1N1CCOCC1 | 323 µM (≈ 201 µg/mL) | 600 nM | 2 | > 50000 nM | > 6300 nM | > 80 | – | – |
| CCOc1cc(Cl)c(C(=O)NC(=O)Nc2nc3ccc(CN4CCN(C)CC4)cc3s2)cc1-n1cccn1 | – | 19 nM | 3.8 | – | – | – | – | – |
| CCOc1cc(C(F)(F)F)c(C(=O)NC(=O)Nc2nc3ccc(CN4CCN(C)CC4)cc3s2)cc1N1CCOCC1 | – | 1400 nM | 3.3 | – | – | – | – | – |
| CCOc1cc(Cl)c(NC(=O)Nc2nc3ccc(CN4CCN(C)CC4)cc3s2)cc1N1CCOCC1 | 20 µM (≈ 10.9 µg/mL) | > 33000 nM | – | > 50000 nM | – | – | – | – |
| Cc1cc(Cl)c(C(=O)NC(=O)Nc2nc3ccc(S(=O)(=O)C4CCN(C)CC4)cc3s2)cc1-n1cccn1 | – | 6100 nM | 2.5 | – | – | – | 70% | – |
| CCOc1cc(Cl)c(C(=O)Nc2nc3ccc(S(=O)(=O)CCCN4CCN(C)CC4)cc3s2)cc1N1C[C@@H](C)O[C@@H](C)C1 | 95 µM (≈ 61.8 µg/mL) | 54 nM | 2.7 | 27000 nM | 660 nM | 500 | – | – |
| CCOc1cc(Cl)c(C(=O)NC(=O)Nc2nc3ccccc3s2)cc1N1CCOCC1 | – | 299 nM | 4 | – | – | – | – | – |
| CCOc1cc(Cl)c(C(=O)NC(=O)Nc2nc3ccc(S(=O)(=O)C4CCN(C)CC4)cc3s2)cc1N1CCOCC1 | – | 166 nM | 2.2 | – | – | – | – | – |
| CCOc1cc(Cl)c(-c2ncc(-c3nc4ccc(S(=O)(=O)C5CCN(C)CC5)cc4s3)c(=O)[nH]2)cc1N1CCOCC1 | 61 µM (≈ 38.4 µg/mL) | 240 nM | 1.6 | > 18000 nM | 1600 nM | – | – | – |
| CCOc1cc(Cl)c(C(=O)Nc2nc3ccc(OC4CCN(C)CC4)cc3s2)cc1N1CCOCC1 | 5 µM (≈ 2.66 µg/mL) | 110 nM | 2.9 | > 30000 nM | 1600 nM | > 80 | – | – |
| CCOc1cc(Cl)c(-c2ccc(-c3nc4ccc(S(=O)(=O)C5CCN(C)CC5)cc4s3)c(=O)[nH]2)cc1N1CCOCC1 | < 0.5 µM | 5 nM | 3.4 | 460 nM | 37 nM | – | – | – |
| CN1CCC(S(=O)(=O)c2ccc3nc(NC(=O)NC(=O)c4cc(-n5cccn5)ccc4Cl)sc3c2)CC1 | – | 7000 nM | 2.3 | – | – | – | 74% | – |
| CCOc1cc(Cl)c(C(=O)NC(=O)Nc2ncc(-c3ccccc3)s2)cc1N1CCOCC1 | – | 103 nM | 4.2 | – | – | – | – | – |
| CCOc1cc(Cl)c(-c2ccc(-c3nc4ccccc4s3)c(=O)[nH]2)cc1N1CCOCC1 | < 0.7 µM | 21 nM | > 3.8 | 1300 nM | 610 nM | – | – | – |
| CCOc1cc(Cl)c(C(=O)Nc2nc3ccc(S(=O)(=O)CCCN4CCN(C)CC4)cc3s2)cc1N1C[C@H](C)O[C@@H](C)C1 | 155 to 231 µM (≈ 101 to 150 µg/mL) | 270 to 350 nM | 3 | 10000 to 14000 nM | 1400 to 3200 nM | > 80 | – | – |
| CCOc1cc(Cl)c(C(=O)NC(=O)Nc2nc3ccc(CN4CCN(C)CC4)cc3s2)cc1-n1cccc1 | – | 22 nM | 4 | – | – | – | – | – |
| CCOc1cc(Cl)c(C(=O)NC(=O)Nc2nc3ccc(S(=O)(=O)C4CCN(C)CC4)cc3s2)cc1-n1cccn1 | 0.2 µM (≈ 0.121 µg/mL) | 23 nM | 3 | 8 nM | 123 nM | – | – | Active |
| CCOc1ccc(C(=O)NC(=O)Nc2nc3ccc(CN4CCN(C)CC4)cc3s2)c(Cl)c1 | – | 560 nM | 3.4 | – | – | – | – | – |
| CCOc1cc(Cl)c(C(=O)Nc2nc3ccc(S(=O)(=O)C4CCN(C)CC4)cc3s2)cc1N1CCOCC1 | 1 µM (≈ 0.579 µg/mL) | 740 nM | 2.5 | > 50000 nM | > 9000 nM | > 80 | – | – |

| Structure (SMILES) | solubility [1] | EC50 [2] | logD [3] | IC50 [4] | EC50 [5] | Ratio IC50/EC50 (Homo sapiens) | Efficacy [6] | Activity [7] |
| --- | --- | --- | --- | --- | --- | --- | --- | --- |
| CCOc1ccc(C(=O)NC(=O)Nc2nc3ccc(CN4CCN(C)CC4)cc3s2)cc1N1CCOCC1 | – | 740 nM | 3 | – | – | – | 47% | – |
| CCOc1cc(Cl)c(C(=O)NC(=O)Nc2nc3c(s2)CCCC3)cc1N1CCOCC1 | – | 120 nM | – | – | – | – | – | – |
| CCOc1cc(Cl)c(CNC(=O)Nc2nc3ccc(CN4CCN(C)CC4)cc3s2)cc1N1CCOCC1 | 188 µM (≈ 105 µg/mL) | > 33000 nM | 3.2 | > 4970 nM | – | – | – | – |
| CCOc1cc(Cl)c(C(=O)Nc2nc3ccc(CN4CCN(C)CC4)cc3s2)cc1N1CCOCC1 | 1.5 µM (≈ 0.795 µg/mL) | 410 nM | 2.8 | > 50000 nM | > 11000 nM | > 80 | – | – |
| CCOc1cc(Cl)c(C(=O)NC(=O)Nc2ncc(C)s2)cc1N1CCOCC1 | – | 769 nM | 3.2 | – | – | – | – | – |
| CCOc1cc(Cl)c(C(=O)NC(=O)Nc2nc3ccc(CN4CCN(C)CC4)cc3s2)cc1N1CCOCC1 | 4 µM (≈ 2.29 µg/mL) | 74 nM | 2.9 | 960 nM | 2160 nM | – | – | Active |
| CN1CCC(S(=O)(=O)c2ccc3nc(NC(=O)NC(=O)c4cc(-n5cccn5)c(F)cc4Cl)sc3c2)CC1 | – | 3600 nM | 2.4 | – | – | – | 70% | – |
| CCOc1cc(Cl)c(C(=O)NC(=O)Nc2nc3c(s2)CN(C(C)=O)CC3)cc1N1CCOCC1 | – | 719 nM | 2.3 | – | – | – | – | – |
| CCOc1cc(Cl)c(C(=O)Nc2nc3ccccc3s2)cc1N1CCOCC1 | 0.09 µM (≈ 0.0376 µg/mL) | 1900 nM | 4.3 | > 50000 nM | 12000 nM | > 80 | – | – |
| CCOc1cc(Cl)c(C(=O)NC(=O)Nc2nc3c(s2)CN(C(=O)CO)CC3)cc1N1CCOCC1 | – | 895 nM | 1.7 | – | – | – | – | – |
| CCOc1cc(Cl)c(C(=O)NC(=O)Nc2nc3ccc(CN4CCN(C)CC4)cc3s2)cc1N1CCO[C@H](C)C1 | – | 32 nM | 3.3 | – | – | – | – | – |
| CCOc1cc(Cl)c(C(=O)NC(=O)Nc2nc3ccc(CN4CCN(C)CC4)cc3s2)cc1-c1ccn[nH]1 | – | 360 nM | 3.9 | – | – | – | – | – |
| CCOc1cc(Cl)c(C(=O)N(C)C(=O)Nc2nc3ccc(CN4CCN(C)CC4)cc3s2)cc1N1CCOCC1 | 492 µM (≈ 289 µg/mL) | > 16000 nM | 2.5 | > 50000 nM | – | – | – | – |
| CCOc1cc(Cl)c(C(=O)NC(=O)Nc2cc3ccccc3s2)cc1N1CCOCC1 | – | 260 nM | 4.4 | – | – | – | – | – |
| CCOc1cc(Cl)c(-c2ncc(-c3nc4ccccc4s3)c(=O)[nH]2)cc1N1CCOCC1 | < 0.31 µM | 490 nM | 3.9 | 5200 nM | > 22000 nM | – | – | – |
| CCOc1cc(Cl)c(C(=O)NC(=O)Nc2nc3ccc(CN4CCN(C)CC4)cc3s2)cc1N1CCCC1 | – | 13 nM | 4 | – | – | – | – | – |
| CCOc1cc(Cl)c(-c2ccc(-c3nc4c(s3)CN(C(=O)COC)CC4)c(=O)[nH]2)cc1N1CCOCC1 | 29 µM (≈ 15.8 µg/mL) | 75 nM | 2.6 | > 50000 nM | 1900 nM | – | – | – |
| CCOc1cc(Cl)c(C(=O)Nc2nc3ccc(S(=O)(=O)CCCN4CCN(C)CC4)cc3s2)cc1N1CCO[C@H](C)C1 | 470 µM (≈ 299 µg/mL) | 160 nM | 2.4 | 21000 nM | 1400 nM | > 80 | – | – |
| CCOc1cc(C)c(C(=O)NC(=O)Nc2nc3ccc(CN4CCN(C)CC4)cc3s2)cc1N1CCOCC1 | – | > 3700 nM | 2.9 | – | – | – | – | – |
